Results: the kinase profiling compilation of Christmann-Franck et al. (2016)

What was measured:
TNK2 (human) = TNK2 (human) (UniProt Q07912); test: KINOMEscan competition binding
AAK1 (human) = AAK1 (human) (UniProt Q2M2I8); test: KINOMEscan competition binding
[1] = test system: EGFR (human), P00533 [747-751 del / S ins]; test: KINOMEscan competition binding
LIMK2 (human) = LIMK2 (human) (UniProt P53671); test: KINOMEscan competition binding
[2] = molecular target: JAK1 JH2 pseudokinase (human) (UniProt P23458); test: KINOMEscan competition binding
Chain of JAK1 JH2 pseudokinase (human) (P23458 whole entry, looked up): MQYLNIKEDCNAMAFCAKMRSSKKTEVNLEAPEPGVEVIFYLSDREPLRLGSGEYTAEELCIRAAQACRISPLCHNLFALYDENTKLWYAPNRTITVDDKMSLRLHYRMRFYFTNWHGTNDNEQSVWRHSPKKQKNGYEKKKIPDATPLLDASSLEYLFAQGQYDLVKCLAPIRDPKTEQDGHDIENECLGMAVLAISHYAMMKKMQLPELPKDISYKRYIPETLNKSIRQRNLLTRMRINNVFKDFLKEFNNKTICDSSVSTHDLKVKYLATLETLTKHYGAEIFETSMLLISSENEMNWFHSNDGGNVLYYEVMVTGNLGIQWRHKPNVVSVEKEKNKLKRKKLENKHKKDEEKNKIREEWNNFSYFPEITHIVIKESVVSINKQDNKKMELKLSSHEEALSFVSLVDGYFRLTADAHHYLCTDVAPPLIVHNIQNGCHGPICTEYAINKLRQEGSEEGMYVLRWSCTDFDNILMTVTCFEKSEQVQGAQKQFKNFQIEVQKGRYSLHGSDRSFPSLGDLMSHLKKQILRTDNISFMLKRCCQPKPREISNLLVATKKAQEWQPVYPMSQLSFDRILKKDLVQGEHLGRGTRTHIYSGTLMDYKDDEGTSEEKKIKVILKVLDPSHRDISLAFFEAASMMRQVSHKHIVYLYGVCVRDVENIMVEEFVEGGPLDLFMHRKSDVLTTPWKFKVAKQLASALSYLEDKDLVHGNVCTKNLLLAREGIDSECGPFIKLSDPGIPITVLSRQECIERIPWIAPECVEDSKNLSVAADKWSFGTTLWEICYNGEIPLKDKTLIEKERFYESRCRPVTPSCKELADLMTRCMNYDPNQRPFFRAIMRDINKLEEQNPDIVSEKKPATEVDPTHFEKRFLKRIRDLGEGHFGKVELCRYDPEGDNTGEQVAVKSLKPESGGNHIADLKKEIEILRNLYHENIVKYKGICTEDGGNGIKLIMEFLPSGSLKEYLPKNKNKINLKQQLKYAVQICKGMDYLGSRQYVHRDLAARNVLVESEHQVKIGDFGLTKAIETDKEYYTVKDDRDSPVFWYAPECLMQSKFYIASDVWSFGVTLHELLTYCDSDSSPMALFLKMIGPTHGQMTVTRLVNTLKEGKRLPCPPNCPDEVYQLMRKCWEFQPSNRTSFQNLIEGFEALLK

[3] = test system: KIT (human), P10721 [L576P]; test: KINOMEscan competition binding
Chain of KIT (human), P10721 [L576P] (P10721 whole entry L576P, looked up): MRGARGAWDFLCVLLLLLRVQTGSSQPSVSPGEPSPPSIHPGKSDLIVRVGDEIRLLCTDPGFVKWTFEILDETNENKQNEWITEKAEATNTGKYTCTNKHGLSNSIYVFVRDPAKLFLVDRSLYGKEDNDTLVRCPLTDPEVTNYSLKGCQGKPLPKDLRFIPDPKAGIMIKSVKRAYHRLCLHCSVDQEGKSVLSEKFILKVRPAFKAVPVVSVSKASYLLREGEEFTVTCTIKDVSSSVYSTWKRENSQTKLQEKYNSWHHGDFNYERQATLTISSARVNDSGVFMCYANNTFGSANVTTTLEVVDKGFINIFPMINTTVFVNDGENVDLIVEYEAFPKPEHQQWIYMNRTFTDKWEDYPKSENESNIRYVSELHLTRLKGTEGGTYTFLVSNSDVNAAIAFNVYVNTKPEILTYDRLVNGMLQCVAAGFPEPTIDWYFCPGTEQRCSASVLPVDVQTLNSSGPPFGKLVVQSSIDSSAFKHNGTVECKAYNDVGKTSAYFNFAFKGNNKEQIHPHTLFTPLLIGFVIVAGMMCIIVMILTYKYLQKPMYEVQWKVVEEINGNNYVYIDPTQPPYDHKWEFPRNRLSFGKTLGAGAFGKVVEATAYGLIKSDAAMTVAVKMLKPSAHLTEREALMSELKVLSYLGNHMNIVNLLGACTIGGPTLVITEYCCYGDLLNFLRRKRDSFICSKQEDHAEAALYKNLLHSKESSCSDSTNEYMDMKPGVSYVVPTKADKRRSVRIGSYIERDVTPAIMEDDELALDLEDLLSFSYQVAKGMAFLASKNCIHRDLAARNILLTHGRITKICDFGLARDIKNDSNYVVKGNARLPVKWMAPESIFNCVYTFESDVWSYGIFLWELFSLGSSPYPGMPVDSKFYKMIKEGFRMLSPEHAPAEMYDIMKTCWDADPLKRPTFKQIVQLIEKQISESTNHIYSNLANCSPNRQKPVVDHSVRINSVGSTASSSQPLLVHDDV

HCK (human) = HCK (human) (UniProt P08631); test: KINOMEscan competition binding
IRAK1 (human) [4] = molecular target: IRAK1 (human) (UniProt P51617)
HIPK1 (human) [5] = molecular target: HIPK1 (human) (UniProt Q86Z02)
MAPK15 (human) = MAPK15 (human) (UniProt Q8TD08); test: radiometric filter-binding kinase assay
GCK (human) = GCK (human) (UniProt Q12851); test: radiometric filter-binding kinase assay
IRAK1 (human) [6] = molecular target: IRAK1 (human) (UniProt P51617); test: radiometric filter-binding kinase assay
NUAK1 (human) = NUAK1 (human) (UniProt O60285); test: radiometric filter-binding kinase assay
RIPK2 (human) = RIPK2 (human) (UniProt O43353); test: radiometric filter-binding kinase assay
CSNK2A1 (human) = CSNK2A1 (human) (UniProt P68400); test: radiometric filter-binding kinase assay
HIPK1 (human) [7] = molecular target: HIPK1 (human) (UniProt Q86Z02); test: radiometric filter-binding kinase assay
JAK2 JH1 JH2 (human) = JAK2 JH1 JH2 (human) (UniProt O60674); test: radiometric filter-binding kinase assay
CLK2 (human) = CLK2 (human) (UniProt P49760); test: radiometric filter-binding kinase assay
DDR1 (human) = DDR1 (human) (UniProt Q08345)
PDGFRB (human) = PDGFRB (human) (UniProt P09619)
CSNK1G2 (human) = CSNK1G2 (human) (UniProt P78368)
CSNK1E (human) = CSNK1E (human) (UniProt P49674)
ERBB4 (human) = ERBB4 (human) (UniProt Q15303); test: radiometric filter-binding kinase assay
MAPK9 (human) = MAPK9 (human) (UniProt P45984); test: radiometric filter-binding kinase assay
MAP3K9 (human) = MAP3K9 (human) (UniProt P80192); test: radiometric filter-binding kinase assay
MAPK10 (human) = MAPK10 (human) (UniProt P53779); test: radiometric filter-binding kinase assay
FLT1 (human) = FLT1 (human) (UniProt P17948); test: radiometric filter-binding kinase assay
EPHB2 (human) = EPHB2 (human) (UniProt P29323); test: radiometric filter-binding kinase assay
EPHB4 (human) = EPHB4 (human) (UniProt P54760); test: radiometric filter-binding kinase assay
AKT1 (human) = AKT1 (human) (UniProt P31749)
AKT3 (human) = AKT3 (human) (UniProt Q9Y243)
SLK (human) = SLK (human) (UniProt Q9H2G2)
[8] = molecular target: AKT2 (human), P31751 [S474D]; test: radiometric filter-binding kinase assay
CaMK1 (human) = CaMK1 (human) (UniProt Q14012); test: radiometric filter-binding kinase assay
HIPK4 (human) = HIPK4 (human) (UniProt Q8NE63)
CSF1R (human) = CSF1R (human) (UniProt P07333)
PRKX (human) = PRKX (human) (UniProt P51817)
MKNK2 (human) = MKNK2 (human) (UniProt Q9HBH9)
YES1 (human) = YES1 (human) (UniProt P07947); test: radiometric filter-binding kinase assay

Chain of LIMK2 (human) (P53671 whole entry, looked up): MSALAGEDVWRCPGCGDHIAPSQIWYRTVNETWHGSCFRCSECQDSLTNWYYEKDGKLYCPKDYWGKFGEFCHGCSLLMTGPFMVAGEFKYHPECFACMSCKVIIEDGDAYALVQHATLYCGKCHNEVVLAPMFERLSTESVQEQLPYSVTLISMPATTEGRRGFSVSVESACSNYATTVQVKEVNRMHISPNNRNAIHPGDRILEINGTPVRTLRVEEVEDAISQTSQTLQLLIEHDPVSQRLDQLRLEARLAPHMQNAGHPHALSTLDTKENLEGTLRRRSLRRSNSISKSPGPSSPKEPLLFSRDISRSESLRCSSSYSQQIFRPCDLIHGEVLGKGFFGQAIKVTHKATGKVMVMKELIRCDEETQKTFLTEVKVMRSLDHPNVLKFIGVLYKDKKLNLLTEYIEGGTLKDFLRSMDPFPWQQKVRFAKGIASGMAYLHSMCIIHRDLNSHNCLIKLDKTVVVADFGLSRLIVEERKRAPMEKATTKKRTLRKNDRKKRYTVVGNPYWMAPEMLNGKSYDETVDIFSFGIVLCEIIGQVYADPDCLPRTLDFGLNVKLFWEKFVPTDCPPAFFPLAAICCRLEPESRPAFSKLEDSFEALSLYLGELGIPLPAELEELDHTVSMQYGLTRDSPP
Chain of AAK1 (human) (Q2M2I8 whole entry, looked up): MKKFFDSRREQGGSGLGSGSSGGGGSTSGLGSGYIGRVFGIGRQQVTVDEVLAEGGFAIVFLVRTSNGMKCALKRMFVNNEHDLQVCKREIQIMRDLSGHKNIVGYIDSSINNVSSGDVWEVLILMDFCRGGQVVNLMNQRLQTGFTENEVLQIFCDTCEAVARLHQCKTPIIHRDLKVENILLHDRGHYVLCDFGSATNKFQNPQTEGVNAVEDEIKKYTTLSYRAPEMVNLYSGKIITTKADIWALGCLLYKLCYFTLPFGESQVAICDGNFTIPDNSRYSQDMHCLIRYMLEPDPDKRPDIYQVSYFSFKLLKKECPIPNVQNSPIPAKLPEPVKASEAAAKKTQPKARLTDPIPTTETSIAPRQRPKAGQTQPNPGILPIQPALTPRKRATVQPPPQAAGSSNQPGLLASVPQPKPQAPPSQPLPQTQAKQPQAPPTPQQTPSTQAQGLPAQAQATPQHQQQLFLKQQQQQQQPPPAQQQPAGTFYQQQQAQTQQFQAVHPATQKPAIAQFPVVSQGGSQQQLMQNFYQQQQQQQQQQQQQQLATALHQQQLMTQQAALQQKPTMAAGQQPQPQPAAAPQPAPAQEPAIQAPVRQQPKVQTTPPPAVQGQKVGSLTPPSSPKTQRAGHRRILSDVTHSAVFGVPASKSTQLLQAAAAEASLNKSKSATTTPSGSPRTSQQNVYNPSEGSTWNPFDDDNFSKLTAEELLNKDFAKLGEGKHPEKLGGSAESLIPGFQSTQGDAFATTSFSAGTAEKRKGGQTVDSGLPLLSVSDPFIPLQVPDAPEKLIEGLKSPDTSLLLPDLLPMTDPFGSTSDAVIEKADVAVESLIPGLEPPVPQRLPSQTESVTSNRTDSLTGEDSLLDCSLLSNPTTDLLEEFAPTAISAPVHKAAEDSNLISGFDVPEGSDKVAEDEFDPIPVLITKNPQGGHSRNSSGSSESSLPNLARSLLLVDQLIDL
Chain of TNK2 (human) (Q07912 whole entry, looked up): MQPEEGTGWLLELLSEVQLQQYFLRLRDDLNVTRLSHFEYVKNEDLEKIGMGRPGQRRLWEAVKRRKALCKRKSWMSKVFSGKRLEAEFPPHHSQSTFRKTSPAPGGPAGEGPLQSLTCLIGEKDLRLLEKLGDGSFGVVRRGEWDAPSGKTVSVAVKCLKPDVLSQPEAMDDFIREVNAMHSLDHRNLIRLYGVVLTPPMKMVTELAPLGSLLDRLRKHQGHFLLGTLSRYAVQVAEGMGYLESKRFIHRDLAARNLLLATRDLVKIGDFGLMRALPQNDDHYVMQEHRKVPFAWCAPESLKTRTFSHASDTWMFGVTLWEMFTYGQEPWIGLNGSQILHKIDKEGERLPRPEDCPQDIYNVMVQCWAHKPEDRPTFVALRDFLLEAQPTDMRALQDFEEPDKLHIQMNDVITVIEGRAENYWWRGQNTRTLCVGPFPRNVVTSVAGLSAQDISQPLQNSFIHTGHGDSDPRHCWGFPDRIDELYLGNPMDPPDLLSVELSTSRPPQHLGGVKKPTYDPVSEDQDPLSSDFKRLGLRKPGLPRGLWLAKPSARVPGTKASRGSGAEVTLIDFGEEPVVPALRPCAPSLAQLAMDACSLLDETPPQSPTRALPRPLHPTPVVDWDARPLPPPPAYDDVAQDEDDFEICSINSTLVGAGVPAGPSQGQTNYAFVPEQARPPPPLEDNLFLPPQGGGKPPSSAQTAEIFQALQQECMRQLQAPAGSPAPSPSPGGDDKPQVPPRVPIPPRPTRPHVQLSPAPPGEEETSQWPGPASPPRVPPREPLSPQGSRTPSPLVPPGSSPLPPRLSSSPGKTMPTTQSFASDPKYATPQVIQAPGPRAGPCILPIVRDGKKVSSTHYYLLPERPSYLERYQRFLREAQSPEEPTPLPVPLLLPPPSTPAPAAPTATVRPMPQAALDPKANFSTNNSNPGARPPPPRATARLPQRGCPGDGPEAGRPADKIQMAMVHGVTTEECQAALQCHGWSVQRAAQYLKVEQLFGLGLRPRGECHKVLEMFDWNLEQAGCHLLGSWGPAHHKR

SMILES | kinase still bound, per cent of control (TNK2 (human); compound 1.0 µM) [%] | kinase still bound, per cent of control (AAK1 (human); compound 1.0 µM) [%] | kinase still bound, per cent of control ([1]; compound 1.0 µM) [%] | kinase still bound, per cent of control (LIMK2 (human); compound 1.0 µM) [%] | kinase still bound, per cent of control ([2]; compound 1.0 µM) [%] | kinase still bound, per cent of control ([3]; compound 1.0 µM) [%] | kinase still bound, per cent of control (HCK (human); compound 1.0 µM) [%] | IC50 (RIPK2 (human)) [µM] | IC50 (PDGFRB (human)) [µM] | IC50 (MAPK9 (human)) [µM] | IC50 (MAP3K9 (human)) [µM] | IC50 (MAPK10 (human)) [µM] | IC50 (FLT1 (human)) [µM] | other results
CN(C)C/C=C/C(=O)Nc1cccc(C(=O)Nc2ccc(Nc3nccc(-c4cccnc4)n3)cc2)c1 | 100 | 18 | 74 | 82 | 8.6 | 2.2 | 100 | 0.729 |  |  |  |  |  | IC50 (IRAK1 (human) [4]): 0.0141 µM; IC50 (HIPK1 (human) [5]): 5.01 µM; IC50 (MAPK15 (human)): 0.183 µM; IC50 (GCK (human)): 20.5 µM; IC50 (IRAK1 (human) [6]): 0.175 µM; IC50 (NUAK1 (human)): 0.144 µM; IC50 (CSNK2A1 (human)): 0.506 µM; IC50 (HIPK1 (human) [7]): 7.61 µM; IC50 (JAK2 JH1 JH2 (human)): 2.51 µM; IC50 (CLK2 (human)): 0.299 µM
CN(C)C/C=C/C(=O)Nc1cccc(C(=O)Nc2ccc(Nc3nccc(-c4c(-c5ccccc5)nn5ccccc45)n3)cc2)c1 | 100 | 100 | 3.4 | 100 | 79 | 3 | 23 | 0.042 | 1.03 | 0.023 | 0.045 | 0.0084 | 0.018 | IC50 (DDR1 (human)): 0.0561 µM; IC50 (CSNK1G2 (human)): 0.161 µM; IC50 (CSNK1E (human)): 0.0829 µM; IC50 (ERBB4 (human)): 0.0289 µM; IC50 (EPHB2 (human)): 0.138 µM; IC50 (EPHB4 (human)): 0.121 µM
CN(C)C/C=C/C(=O)Nc1cccc(C(=O)Nc2ccc(Nc3nccc(/C(C#N)=C4\Nc5ccccc5S4)n3)cc2)c1 | 70 | 100 | 85 | 97 | 81 | 100 | 100 |  |  | 0.49 | 0.104 | 0.354 | 0.134 | IC50 (AKT1 (human)): > 0.37 µM; IC50 (AKT3 (human)): > 0.37 µM; IC50 (SLK (human)): 0.884 µM; IC50 [8]: 0.97 µM; IC50 (CaMK1 (human)): 0.9 µM
Cc1cc(NC(=O)c2cccc(NC(=O)/C=C/CN(C)C)c2)ccc1Nc1nccc(-c2cccnc2)n1 | 90 | 69 | 95 | 98 | 91 | 100 | 100 |  | > 10 |  |  |  |  | IC50 (HIPK4 (human)): 8.97 µM; IC50 (CSF1R (human)): 0.287 µM; IC50 (PRKX (human)): 7.5 µM; IC50 (MKNK2 (human)): 0.238 µM; IC50 (YES1 (human)): 1.28 µM
Cc1ccc(NC(=O)c2ccc(NC(=O)/C=C/CN(C)C)cc2)cc1Nc1nccc(-c2cccnc2)n1 |  |  |  |  |  |  |  |  |  |  |  |  |  | kinase still bound, per cent of control (TNK2 (human); compound 10.0 µM): 98%; kinase still bound, per cent of control (AAK1 (human); compound 10.0 µM): 63%; kinase still bound, per cent of control ([1]; compound 10.0 µM): 50%; kinase still bound, per cent of control (LIMK2 (human); compound 10.0 µM): 78%; kinase still bound, per cent of control ([2]; compound 10.0 µM): 5.1%; kinase still bound, per cent of control ([3]; compound 10.0 µM): 0%; kinase still bound, per cent of control (HCK (human); compound 10.0 µM): 89%
